From ChEMBL document CHEMBL5370540, “Discovery of pyrimidine-5-carboxamide derivatives as novel salt-inducible kinases (SIKs) inhibitors for inflammatory bowel disease (IBD) treatment” (Eur J Med Chem, 2023)
pIC50: −log10 of the molar value. The source made the active and inactive calls. The rule behind the calls is not given here.

Assays:
[1] = target: Tyrosine-protein kinase TXK (Homo sapiens) (UniProt P42681); assay: Inhibition of Txk (unknown origin) at 1 uM
[2] = Tmax in Sprague-Dawley rat at 10 mg/kg, po measured upto 24 hrs by LC/MS/MS analysis; assay type: ADME, organism-based; conditions: in vivo
[3] = target: Serine/threonine-protein kinase SIK1 (Homo sapiens, UniProt P57059); assay: Inhibition of SIK1 (unknown origin)
[4] = Toxicity in DSS-induced colitis C57BL/6J mouse model at 30 mg/kg, ip; assay type: organism-based; conditions: in vivo
[5] = test system: BMDM; assay: Upregulation of CREB-dependent gene transcription in C57BL/6J mouse BMDM cells assessed as CRTC3 translocation to nucleus at 500 nM preincubated for 1 hr followed by LPS stimulation measured after 1 hr by immunofluorescence analysis; assay type: functional, cell-based; conditions: time 2.0 hrs
[6] = Tmax in Sprague-Dawley rat at 5 mg/kg, iv measured upto 24 hrs by LC/MS/MS analysis; assay type: ADME, organism-based; conditions: in vivo
[7] = target: Serine/threonine-protein kinase SIK2 (Mus musculus) (UniProt Q8CFH6); assay: Inhibition of SIK2 in C57BL/6J mouse BMDM cells assessed as increase in Nurr77 mRNA level at 500 nM preincubated for 1 hr followed by LPS stimulation measured for 1 hr by qPCR analysis; assay type: cell-based; conditions: time 2.0 hrs
[8] = test system: Mus musculus; assay: Antiinflammatory activity in DSS-induced colitis C57BL/6J mouse model assessed as increase in body weight at 50 to 100 mg/kg, po; assay type: functional, organism-based; conditions: dose 50-100 mg/kg
[9] = target: Tyrosine-protein kinase Lck (Homo sapiens) (UniProt P06239); assay: Inhibition of LcK (unknown origin) at 1 uM
[10] = target: Tyrosine-protein kinase Tec (Homo sapiens) (UniProt P42680); assay: Inhibition of Tec (unknown origin) at 1 uM
[11] = target: Serine/threonine-protein kinase SIK2 (Homo sapiens, UniProt Q9H0K1); assay: Inhibition of SIK2 (unknown origin)
[12] = target: Tyrosine-protein kinase BTK (Homo sapiens) (UniProt Q06187); assay: Inhibition of BTK (unknown origin) at 1 uM
[13] = Half life in Sprague-Dawley rat at 5 mg/kg, iv measured upto 24 hrs by LC/MS/MS analysis; assay type: ADME, organism-based; conditions: in vivo
[14] = target: Tyrosine-protein kinase ABL1 (Homo sapiens) (UniProt P00519); assay: Inhibition of Abl (unknown origin) at 1 uM
[15] = target: Serine/threonine-protein kinase SIK2 (Mus musculus) (UniProt Q8CFH6); assay: Inhibition of SIK2 in C57BL/6J mouse BMDM cells assessed as increase in IL-12 mRNA level at 500 nM preincubated for 1 hr followed by LPS stimulation measured for 1 hr by qPCR analysis; assay type: cell-based; conditions: time 2.0 hrs
[16] = Cmax in Sprague-Dawley rat at 10 mg/kg, po measured upto 24 hrs by LC/MS/MS analysis; assay type: ADME, organism-based; set-up: dose 10 mg/kg, time < 24 hrs, route po; conditions: in vivo
[17] = AUC (0 to t) in Sprague-Dawley rat at 5 mg/kg, iv measured upto 24 hrs by LC/MS/MS analysis; assay type: ADME, organism-based; set-up: time < 24 hrs, dose 5 mg/kg, route iv; conditions: in vivo
[18] = test system: Mus musculus; assay: Antiinflammatory activity in DSS-induced colitis C57BL/6J mouse model assessed as increase in body weight at 7.5 to 30 mg/kg, ip; assay type: functional, organism-based; conditions: dose 7.5-30 mg/kg
[19] = test system: BMDM; assay: Cytotoxicity against C57BL/6J mouse BMDM cells assessed as cell viability upto 500 nM preincubated for 1 hr followed by LPS stimulation measured after 2 to 4 hrs by CCK8 assay; assay type: toxicity, cell-based; conditions: 0.5 µM, time 3-5 hrs
[20] = Clearance in Sprague-Dawley rat at 10 mg/kg, po measured upto 24 hrs by LC/MS/MS analysis; assay type: ADME, organism-based; conditions: in vivo
[21] = target: Tyrosine-protein kinase ABL2 (Homo sapiens) (UniProt P42684); assay: Inhibition of ARG (unknown origin) at 1 uM
[22] = target: Tyrosine-protein kinase Lyn (Homo sapiens) (UniProt P07948); assay: Inhibition of Lyn (unknown origin) at 1 uM
[23] = target: Tyrosine-protein kinase Fyn (Homo sapiens) (UniProt P06241); assay: Inhibition of Fyn (unknown origin) at 1 uM
[24] = Metabolic stability in human liver microsomes assessed as half life; assay type: ADME, Microsome
[25] = target: Tyrosine-protein kinase HCK (Homo sapiens) (UniProt P08631); assay: Inhibition of HcK (unknown origin) at 1 uM
[26] = Oral bioavailability in Sprague-Dawley rat at 10 mg/kg measured upto 24 hrs by LC/MS/MS analysis; assay type: ADME, organism-based; conditions: in vivo
[27] = test system: BMDM; assay: Effect on TLR-stimulated CREB phosphorylation at Ser133 residue in C57BL/6J mouse BMDM cells at 500 nM preincubated for 1 hr followed by LPS stimulation measured upto 60 mins by Western blot analysis; assay type: functional, cell-based; conditions: time 2.0 hrs
[28] = target: Tyrosine-protein kinase Fgr (Homo sapiens) (UniProt P09769); assay: Inhibition of Fgr (unknown origin) at 1 uM
[29] = target: Serine/threonine-protein kinase SIK2 (Mus musculus) (UniProt Q8CFH6); assay: Inhibition of SIK2 in C57BL/6J mouse BMDM cells assessed as increase in IL-10 mRNA level at 500 nM preincubated for 1 hr followed by LPS stimulation measured for 1 hr by qPCR analysis; assay type: cell-based; conditions: time 2.0 hrs
[30] = test system: BMDM; assay: Anti-inflammatory activity against C57BL/6J mouse BMDM cells assessed as decrease in IL-12 level at 500 nM preincubated for 1 hr followed by LPS stimulation measured after 4 to 8 hrs by ELISA method; assay type: functional, cell-based; conditions: time 5-9 hrs
[31] = target: Serine/threonine-protein kinase SIK2 (Mus musculus) (UniProt Q8CFH6); assay: Inhibition of SIK2 in C57BL/6J mouse BMDM cells assessed as increase in c-FOS mRNA level at 500 nM preincubated for 1 hr followed by LPS stimulation measured for 2 to 4 hrs by qPCR analysis; assay type: cell-based; conditions: time 3-5 hrs
[32] = Cmax in Sprague-Dawley rat at 5 mg/kg, iv measured upto 24 hrs by LC/MS/MS analysis; assay type: ADME, organism-based; set-up: dose 5 mg/kg, time < 24 hrs, route iv; conditions: in vivo
[33] = target: Proto-oncogene tyrosine-protein kinase Src (Homo sapiens) (UniProt P12931); assay: Inhibition of cSRC (unknown origin) at 1 uM
[34] = test system: Mus musculus; assay: Antiinflammatory activity in DSS-induced colitis C57BL/6J mouse model assessed as decrease in disease activity index at 50 to 100 mg/kg, po; assay type: functional, organism-based; conditions: dose 50-100 mg/kg
[35] = Protein binding in human plasma at 10 uM measured for 8 hrs by dialysis method; assay type: ADME, cell-free; conditions: read-out: PPB (converted)
[36] = target: Serine/threonine-protein kinase SIK2 (Mus musculus) (UniProt Q8CFH6); assay: Inhibition of SIK2 in C57BL/6J mouse BMDM cells assessed as increase in IL-10 mRNA level at 500 nM preincubated for 1 hr followed by LPS stimulation measured for 2 to 4 hrs by qPCR analysis; assay type: cell-based; conditions: time 3-5 hrs
[37] = target: Serine/threonine-protein kinase SIK2 (Mus musculus) (UniProt Q8CFH6); assay: Inhibition of SIK2 in C57BL/6J mouse BMDM cells assessed as increase in LIGHT mRNA level at 500 nM preincubated for 1 hr followed by LPS stimulation measured upto 8 hrs by qPCR analysis; assay type: cell-based; conditions: time <= 9.0 hrs
[38] = target: Tyrosine-protein kinase FRK (Homo sapiens) (UniProt P42685); assay: Inhibition of PTK5 (unknown origin) at 1 uM
[39] = target: Serine/threonine-protein kinase SIK3 (Homo sapiens, UniProt Q9Y2K2); assay: Inhibition of SIK3 (unknown origin)

Serine/threonine-protein kinase SIK2 (Mus musculus), sequence (Q8CFH6 whole entry): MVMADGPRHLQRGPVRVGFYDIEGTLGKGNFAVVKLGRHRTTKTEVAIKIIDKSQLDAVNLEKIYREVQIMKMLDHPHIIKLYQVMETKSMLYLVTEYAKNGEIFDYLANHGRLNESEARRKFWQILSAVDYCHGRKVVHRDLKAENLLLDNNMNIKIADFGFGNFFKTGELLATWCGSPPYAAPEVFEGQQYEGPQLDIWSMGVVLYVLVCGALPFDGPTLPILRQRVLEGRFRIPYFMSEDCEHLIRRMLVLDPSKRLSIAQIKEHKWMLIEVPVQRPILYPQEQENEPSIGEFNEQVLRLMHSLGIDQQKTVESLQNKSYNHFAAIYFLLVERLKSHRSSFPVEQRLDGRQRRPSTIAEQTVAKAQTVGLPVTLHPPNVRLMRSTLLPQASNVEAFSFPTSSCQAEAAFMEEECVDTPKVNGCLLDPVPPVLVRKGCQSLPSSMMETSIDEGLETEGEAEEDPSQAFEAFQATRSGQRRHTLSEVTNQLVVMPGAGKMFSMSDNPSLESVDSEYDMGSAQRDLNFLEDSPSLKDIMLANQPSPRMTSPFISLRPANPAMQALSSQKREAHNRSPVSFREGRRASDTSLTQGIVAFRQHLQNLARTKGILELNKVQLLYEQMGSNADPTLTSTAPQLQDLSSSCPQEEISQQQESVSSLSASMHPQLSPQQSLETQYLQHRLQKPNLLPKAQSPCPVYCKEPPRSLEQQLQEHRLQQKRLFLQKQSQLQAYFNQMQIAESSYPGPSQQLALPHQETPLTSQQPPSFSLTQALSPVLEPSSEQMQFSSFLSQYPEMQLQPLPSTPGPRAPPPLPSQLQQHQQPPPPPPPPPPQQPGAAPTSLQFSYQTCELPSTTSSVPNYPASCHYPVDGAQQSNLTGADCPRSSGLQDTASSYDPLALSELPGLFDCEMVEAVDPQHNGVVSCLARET
Tyrosine-protein kinase HCK (Homo sapiens), sequence (P08631 2-526 limits assumed): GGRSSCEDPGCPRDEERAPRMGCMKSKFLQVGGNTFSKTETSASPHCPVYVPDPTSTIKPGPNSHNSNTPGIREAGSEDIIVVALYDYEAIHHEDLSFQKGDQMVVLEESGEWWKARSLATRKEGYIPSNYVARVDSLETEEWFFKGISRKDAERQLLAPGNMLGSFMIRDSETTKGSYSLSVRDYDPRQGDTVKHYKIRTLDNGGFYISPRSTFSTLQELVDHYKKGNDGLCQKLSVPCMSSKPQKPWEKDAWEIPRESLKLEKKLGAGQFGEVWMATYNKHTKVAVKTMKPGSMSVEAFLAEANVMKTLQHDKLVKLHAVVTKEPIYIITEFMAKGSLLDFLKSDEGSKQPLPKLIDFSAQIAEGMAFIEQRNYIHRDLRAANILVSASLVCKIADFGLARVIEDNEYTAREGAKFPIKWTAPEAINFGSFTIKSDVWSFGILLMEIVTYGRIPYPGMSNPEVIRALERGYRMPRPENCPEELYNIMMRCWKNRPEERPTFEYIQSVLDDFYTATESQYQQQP
Serine/threonine-protein kinase SIK2, sequence (Q9H0K1 whole entry): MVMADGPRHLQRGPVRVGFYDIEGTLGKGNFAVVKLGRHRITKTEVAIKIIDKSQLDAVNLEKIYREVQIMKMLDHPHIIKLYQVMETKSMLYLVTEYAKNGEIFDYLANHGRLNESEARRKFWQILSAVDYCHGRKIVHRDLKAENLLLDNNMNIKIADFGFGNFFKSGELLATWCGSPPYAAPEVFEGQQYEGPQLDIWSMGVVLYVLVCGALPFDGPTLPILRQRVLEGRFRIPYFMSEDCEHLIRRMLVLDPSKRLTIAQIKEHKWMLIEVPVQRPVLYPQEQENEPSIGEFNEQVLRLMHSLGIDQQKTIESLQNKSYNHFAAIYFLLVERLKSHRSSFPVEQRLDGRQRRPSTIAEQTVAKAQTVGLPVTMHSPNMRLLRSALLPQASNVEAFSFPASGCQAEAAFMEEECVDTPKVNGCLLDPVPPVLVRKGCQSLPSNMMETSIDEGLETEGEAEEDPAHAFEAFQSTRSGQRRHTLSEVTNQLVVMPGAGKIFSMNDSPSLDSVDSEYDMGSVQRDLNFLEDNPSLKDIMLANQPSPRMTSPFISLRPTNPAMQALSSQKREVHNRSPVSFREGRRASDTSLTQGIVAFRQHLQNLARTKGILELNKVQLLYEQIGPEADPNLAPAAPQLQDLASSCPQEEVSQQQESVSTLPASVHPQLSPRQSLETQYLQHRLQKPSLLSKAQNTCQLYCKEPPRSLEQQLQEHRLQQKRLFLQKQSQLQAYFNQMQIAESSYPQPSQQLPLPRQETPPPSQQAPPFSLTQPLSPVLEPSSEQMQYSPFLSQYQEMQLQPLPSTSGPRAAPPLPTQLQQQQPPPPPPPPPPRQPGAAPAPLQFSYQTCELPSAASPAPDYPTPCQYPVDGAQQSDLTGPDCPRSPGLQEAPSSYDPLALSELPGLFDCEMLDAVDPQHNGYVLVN
Tyrosine-protein kinase Fyn (Homo sapiens), sequence (P06241 2-537 limits assumed): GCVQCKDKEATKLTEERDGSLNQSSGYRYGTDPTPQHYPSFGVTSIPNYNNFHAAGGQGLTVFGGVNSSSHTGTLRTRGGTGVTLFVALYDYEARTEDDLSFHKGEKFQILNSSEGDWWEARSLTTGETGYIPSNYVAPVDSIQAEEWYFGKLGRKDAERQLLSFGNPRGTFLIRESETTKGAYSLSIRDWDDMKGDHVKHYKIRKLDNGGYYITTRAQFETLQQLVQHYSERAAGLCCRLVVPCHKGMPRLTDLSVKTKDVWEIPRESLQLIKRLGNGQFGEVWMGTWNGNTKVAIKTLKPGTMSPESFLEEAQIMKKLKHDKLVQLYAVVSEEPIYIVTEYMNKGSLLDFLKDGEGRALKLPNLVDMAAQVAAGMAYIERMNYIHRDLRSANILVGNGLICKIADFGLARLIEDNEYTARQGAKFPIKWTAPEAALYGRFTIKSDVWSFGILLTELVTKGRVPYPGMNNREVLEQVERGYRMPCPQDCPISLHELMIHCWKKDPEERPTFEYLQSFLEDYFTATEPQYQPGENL
Tyrosine-protein kinase Tec (Homo sapiens), sequence (P42680 whole entry): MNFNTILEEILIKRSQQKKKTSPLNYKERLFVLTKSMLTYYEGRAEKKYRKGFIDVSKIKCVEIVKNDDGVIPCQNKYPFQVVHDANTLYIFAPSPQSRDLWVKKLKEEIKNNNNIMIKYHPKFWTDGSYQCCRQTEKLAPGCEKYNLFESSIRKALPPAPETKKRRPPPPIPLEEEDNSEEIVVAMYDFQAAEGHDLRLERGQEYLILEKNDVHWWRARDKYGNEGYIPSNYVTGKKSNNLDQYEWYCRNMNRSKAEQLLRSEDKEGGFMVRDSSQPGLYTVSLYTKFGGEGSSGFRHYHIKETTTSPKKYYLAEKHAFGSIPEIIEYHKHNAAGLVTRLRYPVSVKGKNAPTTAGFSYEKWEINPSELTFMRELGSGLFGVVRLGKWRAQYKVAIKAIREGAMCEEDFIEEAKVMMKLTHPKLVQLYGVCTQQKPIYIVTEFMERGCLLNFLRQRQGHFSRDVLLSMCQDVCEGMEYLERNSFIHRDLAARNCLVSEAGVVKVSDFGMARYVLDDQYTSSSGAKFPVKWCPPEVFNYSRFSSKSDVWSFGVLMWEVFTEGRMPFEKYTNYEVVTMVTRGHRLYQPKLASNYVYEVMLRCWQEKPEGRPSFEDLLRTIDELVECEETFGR
Tyrosine-protein kinase ABL2 (Homo sapiens), sequence (P42684 whole entry): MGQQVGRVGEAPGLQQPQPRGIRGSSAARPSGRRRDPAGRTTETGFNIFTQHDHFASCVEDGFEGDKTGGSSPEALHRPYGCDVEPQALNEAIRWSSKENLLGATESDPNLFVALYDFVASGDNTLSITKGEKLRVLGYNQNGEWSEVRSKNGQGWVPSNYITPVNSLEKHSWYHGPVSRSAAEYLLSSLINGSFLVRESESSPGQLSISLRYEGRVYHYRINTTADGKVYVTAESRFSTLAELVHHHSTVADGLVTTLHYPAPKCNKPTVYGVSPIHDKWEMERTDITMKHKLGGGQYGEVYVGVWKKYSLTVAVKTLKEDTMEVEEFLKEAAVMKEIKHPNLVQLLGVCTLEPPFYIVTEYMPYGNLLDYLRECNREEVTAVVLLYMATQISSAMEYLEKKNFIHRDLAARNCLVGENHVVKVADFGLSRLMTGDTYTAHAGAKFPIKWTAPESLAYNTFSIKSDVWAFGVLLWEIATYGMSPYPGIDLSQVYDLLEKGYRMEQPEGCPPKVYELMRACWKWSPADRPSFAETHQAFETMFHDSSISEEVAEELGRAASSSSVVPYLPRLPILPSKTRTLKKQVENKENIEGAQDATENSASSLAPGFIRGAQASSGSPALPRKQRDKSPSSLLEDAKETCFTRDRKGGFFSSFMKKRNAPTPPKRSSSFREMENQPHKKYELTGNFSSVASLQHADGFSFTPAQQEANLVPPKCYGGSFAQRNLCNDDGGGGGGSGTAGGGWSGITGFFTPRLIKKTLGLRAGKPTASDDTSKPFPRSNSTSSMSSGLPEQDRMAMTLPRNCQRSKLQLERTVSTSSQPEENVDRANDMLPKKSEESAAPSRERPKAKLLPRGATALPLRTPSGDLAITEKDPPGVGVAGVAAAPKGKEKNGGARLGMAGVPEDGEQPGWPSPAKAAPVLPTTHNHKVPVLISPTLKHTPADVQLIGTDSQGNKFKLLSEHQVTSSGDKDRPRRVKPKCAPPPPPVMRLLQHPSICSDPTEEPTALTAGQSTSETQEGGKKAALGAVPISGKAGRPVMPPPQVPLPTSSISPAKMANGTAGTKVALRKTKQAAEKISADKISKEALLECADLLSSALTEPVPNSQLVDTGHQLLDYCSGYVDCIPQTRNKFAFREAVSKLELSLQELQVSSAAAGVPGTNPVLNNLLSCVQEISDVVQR

inhibition [1]: Active
Tmax [2]: 8 h
pIC50 [3]: 7.62
Tmax [6]: 6 min
inhibition [7]: Active
inhibition [9]: Active
inhibition [10]: Active
pIC50 [11]: 8.10
inhibition [12]: Active
half-life [13]: 11.5 h
inhibition [14]: Active
inhibition [15]: Active
Cmax [16]: 572 ng/mL
AUC(0-t) at 24 h [17]: 20300 ng·h/mL
CL/F [20]: 11.7 mL/min/kg
inhibition [21]: Active
inhibition [22]: Active
inhibition [23]: Active
half-life [24]: > 2 h
inhibition [25]: Active
bioavailability [26]: 23%
inhibition [28]: Active
inhibition [29]: Active
inhibition [31]: inactive
Cmax [32]: 12000 ng/mL
inhibition [33]: Active
fraction unbound at 8 h, 10 µM [35]: 0.206
inhibition [36]: inactive
inhibition [37]: Active
inhibition [38]: Active
pIC50 [39]: 6.84
Compound: Cc1cccc(F)c1NC(=O)c1cnc(Nc2ccc(N3CCN(C)CC3)c(F)c2)nc1NC1CCC1
Activity [4]: Toxic
Activity [5]: Active
Activity [8]: Active
Activity [18]: Active
Activity [19]: Non-Toxic
Activity [27]: inactive
Activity [30]: inactive
Activity [34]: Active
